Measurements reported in patent US10485800B2, “Mixed lineage kinase inhibitors for HIV/AIDS therapies” (UNIVERSITY OF ROCHESTER, priority 2012, dated 2019).

Key:
HIV-1 = conditions: in vivo model of HIV-1 infection; cited from earlier work
MLK3 = MLK3 (Rattus norvegicus (Rat), UniProt Q66HA1); conditions: primary rat neurons; cited from earlier work
[1] = test system: primary rat hippocampal neurons; conditions: primary rat hippocampal and dorsal root ganglion neurons; cited from earlier work
Tat = Tat (Human immunodeficiency virus type 1 group M subtype B (isolate HXB2) (HIV-1), UniProt P04608); experiment: Tat injection model, synapse protection and neuroinflammation (FIGS. 10-24); assay type: in vivo
Chain of Tat (P04608 whole entry, looked up): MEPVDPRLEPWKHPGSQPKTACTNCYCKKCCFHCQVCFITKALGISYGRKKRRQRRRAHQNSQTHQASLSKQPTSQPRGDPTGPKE
Method: FIG. 19 is a group of photographs showing IHC synapse protection. Map2 staining 28 days post injection at the injection site. Pre/continuous treatment with Compound AH at 10 mg/kg i.p. q 12, 9 μg of Tat injected at 80 nL/min. The same Compound AH/Tat treatment paradigm was used in FIGS. 20-24.
(FIGS. 10-24). The compound is a selectively non-selective inhibitor for a subset of kinases that have pathogenetic roles for activation of immune effector cells with damage to target cells (neurons, myocytes, pancreatic acinar cells) in both central and peripheral degenerative diseases with autoimmune components.

[2] = test system: Rab 7 late endosomal compartment; experiment: Rab studies: nanoART drug levels in endosomal compartments; assay type: cell-based
Method: FIG. 25 is a graph showing that Compound AH is able to sustain the presence of atazanavir/ritonavir nanoART in late endosomes. Concentrations of 1 and 10 ng/mL of Compound AH increases drug levels for more than 10 days in these compartments. This is significant and reproducible. […] Thus more of the drug is present in there for longer time periods, boosting efficacy and leading to reduction of residual virus.
The Rab 7 compartment increased marked in size and expression (protein content) as a result of HIV infection. […] That is also where anti-HIV proteases work and where their sites of actions lie. […] This signals that the combination has eliminated or nearly so, the ability of virus to assemble in this compartment.

HIV-1 ADA = experiment: HIV-1 infection model in humanized mice; assay type: in vivo; conditions: nanoART 6 weeks s.c.; Compound AH 10 mg/kg i.p. once daily during final two weeks
Method: The MLK inhibitor Compound AH was used in test with an animal model for HIV-1 infection. Specifically, 22 week old humanized mice (NOD/scidIL-2Rγc^null (NSG) mice stably engrafted with human CD34+ hematopoeitic stem cells were infected with HIV-1 ADA (Gorantla et al., J. Virol. 81:2700-2712, 2007). The mice were then treated with the nanoformulated antiretroviral therapy comprising atazanavir and ritonavir (nanoART) for 6 weeks by s.c. injections (6×/week). During the final two weeks, the animals also received the MLK-3 inhibitor Compound AH by once daily injection (10 mg/kg i.p.). Viral RNA load was measured over time in plasma from these mice, and productively infected cells were counted in tissues harvested from animals at sacrifice (including lymph node (FIG. 4) and spleen (FIG. 5)).
Further, starting at 10 weeks post infection, when the mice were at the peak of their viral load (VL) the MLK-3 inhibitor Compound AH was administered daily and the nanoART was administered weeks for three weeks. Peripheral VL ratio of human CD4+ and CD8+ T lymphocyte, drug levels in plasma and organs and pathological changes in lymphoid and brain tissues were investigated.
(§1) Higher plasma drug levels correspond to lowest viral load.

Rab7 = Rab7 (Homo sapiens (Human), UniProt P51149); experiment: Proteomic analyses of human monocyte-derived macrophages (Rab7); assay type: cell-based; conditions: HIV-1 infected MDM
Text: FIG. 7 (top) is a schematic of a proteomic analysis.
FIG. 8 is a photograph from a Western blot validation for Rab7a. Rab7A (Protein KB) is a key regulator in endolysosomal trafficking. It governs early-to-late endosomal maturation, microtubule minus-end as well as plus-end directed endosomal migration and positioning, and endosome-lysosome transport.
as §1

Human monocytes = experiment: Tat-assays: Tat-induced cytokine and chemokine production in human monocytes (Luminex); assay type: cell-based; conditions: 50 nM HIV-1 Tat, 8 hours
Method: Human monocytes were isolated from freshly collected whole blood using CD14 immunomagnetic beads (Miltenyi-Biotec). Cells were then plated in 24-well plates at 5×10^4 cells/well in RPMI-1640 culture medium supplemented with 10% fetal bovine serum (FBS). The specified compounds were then added to the cultures at the indicated concentrations (100, […], 1000 nM); in control wells, no compound was added. 30 min later, HIV-1 Tat was added to a final concentration of 50 nM the cells were incubated for 8 hours (in control wells, nothing was added [NT]). Cell supernatants were then collected, centrifuged 15 min at 13000 rpm to remove debris, transferred to new microcentrifuge tubes and frozen at −20° C. A Luminex bead array assay was then performed, for the indicated chemokines and cytokines. Results were measured in triplicate or quadruplicate, and data are presented as mean values; error bars denote the standard deviation. Note that similar results were obtained with monocytes derived from multiple (n>5) different donors, as well as in terminally differentiated monocyte-derived macrophages (data not shown due to space limitations). *:p<0.05; one-way ANOVA with Bonferroni's correction (when compared to Tat only control). See FIG. 11 (tat-induced cytokine production) and FIG. 12 (tat-induced chemokine production).

MOG35-55 EAE mice = experiment: MOG35-55 EAE model; assay type: in vivo
Text: Hippocampal synaptic injury in MOG35-55 EAE mice correlates with microglial activation and may occur independent of myelin loss. […] Protective effects in EAE hippocampal gray matter appear dissociable from those in the spinal cord. Many interventions targeting microglial function affect EAE motor deficits and the spinal cord inflammation that those largely reflect.

Chain of MLK3 (Q66HA1 whole entry): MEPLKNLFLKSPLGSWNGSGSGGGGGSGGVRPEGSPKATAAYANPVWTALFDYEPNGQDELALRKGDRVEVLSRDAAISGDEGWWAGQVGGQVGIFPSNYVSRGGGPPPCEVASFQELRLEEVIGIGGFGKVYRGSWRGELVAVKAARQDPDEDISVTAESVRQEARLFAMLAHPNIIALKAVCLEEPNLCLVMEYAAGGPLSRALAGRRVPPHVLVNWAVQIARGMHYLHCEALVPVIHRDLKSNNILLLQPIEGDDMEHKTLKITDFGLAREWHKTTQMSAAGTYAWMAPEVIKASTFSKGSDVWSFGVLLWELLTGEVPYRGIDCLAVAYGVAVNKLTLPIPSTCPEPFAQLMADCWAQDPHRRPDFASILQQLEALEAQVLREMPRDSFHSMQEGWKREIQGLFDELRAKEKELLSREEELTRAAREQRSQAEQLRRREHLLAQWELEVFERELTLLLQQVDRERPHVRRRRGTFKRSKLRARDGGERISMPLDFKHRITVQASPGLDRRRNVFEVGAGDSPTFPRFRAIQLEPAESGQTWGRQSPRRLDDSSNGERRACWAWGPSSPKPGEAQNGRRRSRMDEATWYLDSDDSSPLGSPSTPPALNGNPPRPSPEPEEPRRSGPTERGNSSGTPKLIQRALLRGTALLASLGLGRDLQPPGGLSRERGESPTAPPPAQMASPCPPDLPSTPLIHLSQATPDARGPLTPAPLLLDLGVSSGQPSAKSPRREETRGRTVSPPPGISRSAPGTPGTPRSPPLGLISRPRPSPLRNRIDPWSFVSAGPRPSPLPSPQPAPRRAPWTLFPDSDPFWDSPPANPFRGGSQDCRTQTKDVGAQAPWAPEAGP

SMILES | neuroprotection in vivo (HIV-1) | Tat and gp120 induced autophosphorylation of MLK3 (MLK3) | protection of neurons from lethal effects of HIV-1 gp120 [1] | neuroprotection to the synapse (Tat; Compound AH 10 mg/kg i.p. q 12, 9 μg of Tat injected) | neuroinflammation (Tat; FIGS. 10-24) | time for which atazanavir/ritonavir nanoART drug levels in late endosomes are increased ([2]; 1 and 10 ng/mL of Compound AH, FIG. 25) | drug levels in Rab compartments ([2]; Compound AH induction) | HIV-1 viral load (HIV-1 ADA) | Rab7 protein regulation (Rab7) | tat-induced cytokine production (Human monocytes; FIG. 11) | tat-induced chemokine production (Human monocytes; FIG. 12) | microglial activation in EAE hippocampus (MOG35-55 EAE mice; EAE hippocampus) | synaptic structure in EAE hippocampus (MOG35-55 EAE mice; EAE hippocampus) | EAE motor deficits (MOG35-55 EAE mice; treatment at onset of clinical disease)
CCSCc1ccc2c(c1)c1c3c(c4c5cc(CSCC)ccc5n5c4c1n2[C@H]1C[C@](O)(C(=O)OC)[C@]5(C)O1)CNC3=O (relative stereo) [CEP1347, 3,9-bis[(ethylthio)methyl]-(8R*,9S*, 11S*)-(−)-9-hydroxy-9-methoxycarbonyl-8-methyl-2,3,9,10-tetrahydro-8,11-epoxy-1H,8H, 11H-2,7b,11a-triazadibenzo(a,g)cycloocta(cde)trinden-1-one] | neuroprotective | abolished | can protect primary rat hippocampal neurons as well as dorsal root ganglion neurons |  |  |  |  |  |  |  |  |  |  | 
CN1CCN(Cc2ccc(-c3cnc4[nH]cc(-c5ccc6[nH]ccc6c5)c4c3)cc2)CC1 [Compound AH] |  |  |  | provides neuroprotection to the synapse | anti-neuroinflammatory | more than 10 days | general increase in drug levels was seen in all Rab compartments | modest reducing in HIV-1 viral load | induced the RAS-related GTP-binding protein Rab7 | blocks tat-induced cytokine production | blocks tat-induced chemokine production | attenuates microglial activation | protects synaptic structure | no effect on EAE motor deficits
